Results reported in patent US20240103005A1, “N-ACRYLOYLINDOLES AND METHODS OF USE” (The University of Hong Kong, priority 2022, published 2024).

What was measured:
231MFP cells = assay: WST-8 cell viability assay; type: cell-based
Procedure: WST-8 Cell Viability Assay of Cells Treated with NAIA-4 or IAA
231MFP cells were plated on 96-well plates (Corning, 3904) at 30,000 cells per well and allowed to grow in complete medium overnight. The cells were then incubated with DMSO solvent control, NAIA-4 or IAA at indicated concentrations for 2 h. The solution was replaced with new culture medium containing 10 μL of WST-8 solution (Abcam; ab228554) and incubated for 2 h in dark at 37° C. Cell viability were then assayed by the absorption at 460 nm on SpectraMax i3 (Molecular Devices).

[1] = Stability in aqueous buffer solution over time (LC-MS); type: physicochemical
Procedure: Stability of NAIA-5 in Aqueous Buffer Solution Over Time
NAIA-5 (10 μM) was dissolved in PBS/MeOH solution mixture (4:1, v/v; 500 μL) and stay at room temperature. At predetermined time intervals, an aliquot of the reaction mixture (10 μL) was sent for LC-MS analysis on Waters Autopurification System using a SunFire C18 HPLC column (50×4.6 mm with 5 μm diameter particles, Waters). Separation was achieved by gradient elution from 5% to 100% MeCN in water (constant 0.1 vol % formic acid) over 4 min, isocratic elution with 100% MeCN (with 0.1 vol % formic acid) from 4 to 8 min and returning to 5% MeCN in water (with 0.1 vol % formic acid) and equilibrated for 2 min. Selected ion chromatograms, with m/z=325 corresponding to [NAIA-5+H]^+, were extracted and analyzed by integrating the area under curve.
As fast-reacting probes are often susceptible to hydrolysis, we sought to investigate the aqueous stability of NAIA-C5 amide. […] Taking the excellent reaction kinetics and a mere 14% degradation in 30 min into account, NAIA-C5 amide was considered to be a useful tool in cysteine profiling (FIG. 17C and FIG. 17F).

HepG2 cells [2] = assay: Gel-based ABPP, Cys labeling in live HepG2 cells; type: cell-based; conditions: 10 μM, three incubation time intervals
Procedure: In-Gel Fluorescence for Visualizing Cys Labeling by NAIAs and IAA in Live Cells
231MFP or HepG2 cells were grown in 10-cm plates in complete medium. At ca. 80% confluency, the cells were treated with DMSO solvent control, NAIA-4, NAIA-5, or IAA at indicated concentrations in complete medium for indicated time interval. The cells were then washed by DPBS and lysed by probe sonication in DPBS. Cell debris were removed by centrifugation at 1,000 g for 5 min. Protein concentration of the lysates was determined by BCA assay, and the lysates were diluted to 2 mg/mL by DPBS. 50 μL of the lysates were labeled with azide-fluor 545 by CuAAC according to the procedures described above. The samples were then added with 4× reducing Laemmli SDS sample loading buffer, boiled at 90° C. for 5 min, and separated by molecular weight on precast 4-20% TGX gels and scanned by ChemiDoc MP for measuring in-gel fluorescence. After that, the gel was stained with SimplyBlue™ SafeStain as described above, washed and scanned by ChemiDoc MP for imaging the blue staining.
In view of the success in labeling cysteines in cell lysates, we then proceeded to apply NAIA for capturing reactive cysteines in live cells. […] After protein assay and normalization, the protein samples were subjected to click reaction with azide-fluor 545, followed by SDS-PAGE and in-gel fluorescence measurement. […]

HepG2 cells [3] = assay: MS-based ABPP, live-cell cysteine labeling of HepG2 cells; design: species or system human; conditions: 10 μM, 1 h
Procedure: MS-Based ABPP Experiments to Identify Liganded Cysteines in HepG2 Cells by Live-Cell Labeling Using NAIA-5 or IAA.
HepG2 cells were plated on 15 cm tissue culture plates and allowed to grow in complete medium at 37° C. with 5% CO2 to ca. 80% confluency. The cells were then treated with NAIA-5 and IAA (10 μM), respectively, in complete medium and incubated at 37° C. with 5% CO2 for 1 h. The cells were washed, scrapped in PBS and lysed by sonication. After BCA assay, the cell lysates were diluted to 2 mg/mL, and 2 mL of the lysates were used for n=1 sample preparation. The lysates were then subjected to CuAAC reaction with DTB-PEG-azide, acetone precipitation, enrichment by streptavidin beads, reduction by TCEP followed by cysteine carbamidomethylation and tryptic digestion according to the same procedure described for the sample preparation of HepG2 cell lysate experiment except no pairing of the NAIA-5- and IAA-labeled samples. The probe-modified peptides were then eluted by elution buffer solution (MeCN/H2O, 1:1, v/v; with 0.1% formic acid), dried, desalted by C18 Stage tips and sent for LC-MS/MS analysis using Aurora C18 UHPLC column (75 μm i.d.×25 cm length×1.6 μm particle size; IonOpticks, Australia) coupled to timsTOF Pro mass spectrometer (Bruker), with the same experimental settings as described for the experiment on HepG2 cell lysates. […]

In the case of `C#CCCCCNC(=O)CI` [IAA, N-Hex-5-ynyl-2-iodoacetamide, reference compound], the “cytotoxicity (in words)” value (231MFP cells) is reported as “high cellular cytotoxicity”.
For `C#CCCCCNC(=O)COc1ccc2c(ccn2C(=O)C=C)c1` [NAIA-5], the “change of compound level in aqueous buffer solution over time (in words)” value ([1]; 10 μM, PBS/MeOH 4:1, room temperature) was “No significant changes in NAIA-5 level in the aqueous buffer solution over time”, the “time stable in PBS solution” value ([1]; pH 7.4, absence of Cys) was at least 3 h and the “cysteine labeling in live cells (in-gel fluorescence) compared with IAA” value (HepG2 cells [2]) was “better cysteine labeling than IAA at 10 μM for all the three incubation time intervals”. The “number of labeled cysteines in live cells compared with IAA” value (HepG2 cells [3]) was “higher number of labeled cysteines than IAA”.
